This is an account of results in patent US5035877A, “Non-ionic contrast media from ionic contrast media” (Cook Imaging Corporation, priority 1990, dated 1991).

The test system of one data set is Rats (Lewis). Briefly: Estimated i.v. LD50, rats (systemic toxicity). Type of data set: in vivo. To be noted: 300 mg I/ml, 37° C., injection rate 5 ml/min. The method, then:
(§1) Compounds VIII and XVI were tested from stability, solubility, osmolality, viscosity and systemic toxicity.
(§2) *All at 300 mg I/ml concentration and 37° C. Injection rates 1
(§3) ml/min in mice and 5 ml/min in rats.
(§4) °Ref. Salvesen, S. in Acta Radiol. Suppl. 362, p. 73, 1980

The nature of a further data set: Osmolality. The class given is physicochemical. To be noted: for osmolality (in words): compared with existing compounds. The method, then:
as §1, §2

A further data set in a line: Viscosity. The class given is physicochemical. The note with it: for viscosity (in words): compared with existing compounds. The method, then: as §1, §2
The next data set has as its system Mice (CD-1). Briefly: Estimated i.v. LD50, mice (systemic toxicity). Type of data set: in vivo. To be noted: 300 mg I/ml, 37° C., injection rate 1 ml/min. The method, then:
as §1, §2, §3, §4

Another data set is described as follows: Stability. Type of data set: physicochemical. The note with it: compared with existing compounds. The method, then:
as §1

Another data set can be described thus: Solubility. The class given is physicochemical. The note with it: compared with existing compounds. The method, then: as §1
Data set [1] in a line: Systemic toxicity (conventional tests, in words). The note with it: compared with existing compounds. Type of data set: in vivo. The method, then:
as §1

The conditions of data set [2]: must be dispensed lyophilized and reconstituted prior to use; cited from earlier work.

As to `CNC(=O)c1c(I)c(C(=O)N[C@@H](CO)[C@H](O)CO)c(I)c(N(CC(O)CO)C(C)=O)c1I` (relative stereo) [XVI, 5-(N-2,3-Dihydroxypropylacetamido)-2,4,6-triiodo-N-methyl-N'-(1,3,4-trihydroxy-erythro-but-2-yl) isophthalamide], the “Estimated i.v. LD50” value in the data set on Rats (Lewis) is 13.5-14 gI/kg; in the data set on Mice (CD-1), 12-13 gI/kg. The “osmolality (in words)” value in the data set “Osmolality” is given as “substantially reduced osmolality”. In “Viscosity”, the “viscosity (in words)” value is “comparable properties in the other categories”. In the data set “Stability”, the “stability (in words)” value was “comparable properties in the other categories”. Also, the “solubility (in words)” value in “Solubility” is listed as “comparable properties in the other categories”. In data set [1], the “systemic toxicity (in words)” value was “comparable properties in the other categories”.
For `CC(=O)N(CC(O)CO)c1c(I)c(C(=O)NCC(O)CO)c(I)c(C(=O)NCC(O)CO)c1I` (centres unmarked) [Iohexol], the “Estimated i.v. LD50” value is listed as 13.5-15 gI/kg in the data set on Rats (Lewis) and 16-17 gI/kg with Mice (CD-1).
In the same order, the values of `C[C@H](O)C(=O)Nc1c(I)c(C(=O)NC(CO)CO)c(I)c(C(=O)NC(CO)CO)c1I` [Iopamidol] are 12.2-13 gI/kg and 17-18 gI/kg.
The matching figures for `COCC(=O)Nc1c(I)c(C(=O)NCC(O)CO)c(I)c(C(=O)N(C)CC(O)CO)c1I` (centres unmarked) [Iopromide]: 10-11.5 gI/kg and 11.5-13.0 gI/kg.
As to `CC(=O)Nc1c(I)c(C(=O)N[C@H]2C(O)O[C@H](CO)[C@@H](O)[C@@H]2O)c(I)c(N(C)C(C)=O)c1I` (some centres unmarked) [Metrizamide], in data set [2], the “hydrolytic stability (in words)” value is “hydrolytic instability”.
As to `CC(=O)N(CC(O)CO)c1c(I)c(C(=O)NCCO)c(I)c(C(=O)NCC(O)CO)c1I` (centres unmarked) [VIII, 5-(N-2,3-dihydroxypropylacetamido)-2,4,6-triiodo-N-(2,3-dihydroxypropyl)-N'-(2-hydroxyethyl)-isophthalamide], the “Estimated i.v. LD50” value was 14-16.5 gI/kg in the data set on Rats (Lewis) and 16-17 gI/kg with Mice (CD-1). Also, in the data set “Osmolality” (300 mg I/ml, 37° C.), the Osmolality is on record as 560 mOsm/kg. Further, the “osmolality (in words)” value in the data set “Osmolality” was “substantially reduced osmolality”. The Viscosity in “Viscosity” (300 mg I/ml, 37° C.) came to 5.3 cps. For the same compound, the “viscosity (in words)” value in the data set “Viscosity” was “comparable properties in the other categories”. Also, the “stability (in words)” value in “Stability” was “comparable properties in the other categories”. For the same compound, in “Solubility”, the “solubility (in words)” value is reported as “comparable properties in the other categories”. Also, the “systemic toxicity (in words)” value in data set [1] is reported as “comparable properties in the other categories”.
